Tests used:
[1] = target: T1, Human recombinant serotonin 5-HT2B receptor (Homo sapiens, UniProt P41595); assay: 5-HT2B receptor radioligand binding inhibition ([3H]LSD); conditions: for inhibition at 10 µM: screened at 10 μM, mean of two replicates
T1 construct: expressed in transfected cells; host or cells: CHO-K1
Procedure: (§1) Four novel LSD derivatives according to the present invention (referred to as “Compound 1”, “Compound 2”, “Compound 3”, and “Compound 4”; structures depicted below) were screened at 10 μM at key receptors of interest in order to determine % binding inhibition. Targets were selected due to prior evidence that LSD binds these targets with moderate or high affinities in vitro, as well as their functional significance in the context of human health.
Human recombinant serotonin 5-HT2B receptor expressed in CHO-K1 cells were used to prepare membranes in modified Tris-HCl buffer pH 7.4. A 30 μg aliquot of membrane protein was incubated with 1.2 nM [^3H]LSD for 60 minutes at 37° C. Non-specific binding was estimated in the presence of 10 μM serotonin. Membranes were filtered and washed, the filters were then counted to determine [^3H]LSD specifically bound. Test compounds were screened at 10 μM.
(§2) Experimental results were expressed as a percent of control specific binding, via the equation: […]
(§3) For each target, data from two experimental replicates were averaged to generate a mean % inhibition.

[2] = target: T2, Human recombinant adenosine A2A receptors (Homo sapiens, UniProt P29274); assay: A2A receptor radioligand binding inhibition ([3H]CGS-21680); conditions: for inhibition at 10 µM: screened at 10 μM, mean of two replicates; for interaction at A2A receptor, in words: 10 μM, % inhibition greater than 50% interpreted as potentially significant interaction
T2 construct: expressed in transfected cells; host or cells: HEK-293
T2 sequence (P29274 whole entry): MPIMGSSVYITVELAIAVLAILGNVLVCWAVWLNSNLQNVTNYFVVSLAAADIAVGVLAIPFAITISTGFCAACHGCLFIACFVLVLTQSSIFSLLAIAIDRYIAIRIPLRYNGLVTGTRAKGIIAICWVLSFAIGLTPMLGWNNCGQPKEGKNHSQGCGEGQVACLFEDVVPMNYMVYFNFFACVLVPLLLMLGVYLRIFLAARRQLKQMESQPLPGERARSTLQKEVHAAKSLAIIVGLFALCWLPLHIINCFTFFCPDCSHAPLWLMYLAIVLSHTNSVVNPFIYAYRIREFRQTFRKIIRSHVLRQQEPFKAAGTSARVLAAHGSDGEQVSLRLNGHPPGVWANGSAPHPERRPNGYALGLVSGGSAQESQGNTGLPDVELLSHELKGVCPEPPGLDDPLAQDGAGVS
Procedure: as §1
Human recombinant adenosine A2A receptors expressed in human HEK-293 cells were used in modified Tris-HCl buffer pH 7.4. A 15 μg aliquot was incubated with 50 nM [^3H]CGS-21680 for 90 minutes at 25° C. Non-specific binding was estimated in the presence of 50 μM NECA. Receptor were filtered and washed, the filters were then counted to determine [^3H]CGS-21680 specifically bound. Test compounds were screened at 10 μM.
as §2, §3

[3] = target: T3, Human recombinant serotonin 5-HT1A receptors (Homo sapiens, UniProt P08908); assay: 5-HT1A receptor radioligand binding inhibition ([3H]8-OH-DPAT); conditions: for inhibition at 10 µM: screened at 10 μM, mean of two replicates; for interaction at 5-HT1A receptor, in words: 10 μM, % inhibition greater than 50% interpreted as potentially significant interaction
T3 construct: expressed in transfected cells; host or cells: CHO-K1
T3 sequence (P08908 1-422): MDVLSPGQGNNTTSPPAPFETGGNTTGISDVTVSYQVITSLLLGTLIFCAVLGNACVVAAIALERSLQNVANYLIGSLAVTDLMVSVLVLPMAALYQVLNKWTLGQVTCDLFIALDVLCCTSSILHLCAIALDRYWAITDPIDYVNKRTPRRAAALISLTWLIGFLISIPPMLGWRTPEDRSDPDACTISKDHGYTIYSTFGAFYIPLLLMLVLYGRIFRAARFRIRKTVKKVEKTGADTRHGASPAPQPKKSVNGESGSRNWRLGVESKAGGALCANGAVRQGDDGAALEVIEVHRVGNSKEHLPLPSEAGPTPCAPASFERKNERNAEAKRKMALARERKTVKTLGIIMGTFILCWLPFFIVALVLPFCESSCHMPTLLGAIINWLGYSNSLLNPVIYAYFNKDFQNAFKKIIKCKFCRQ
Procedure: as §1
Human recombinant serotonin 5-HT1A receptors expressed in CHO-K1 cells were used in modified Tris-HCl buffer pH 7.4. An 8 μg aliquot of membrane protein was incubated with 1.5 nM [^3H]8-OH-DPAT for 60 minutes at 25° C. Non-specific binding was estimated in the presence of 10 μM metergoline. Receptors were filtered and washed, the filters were then counted to determine [^3H]8-OH-DPAT specifically bound. Test compounds were screened at 10 μM.
as §2, §3

[4] = target: T4, Human recombinant dopamine D2S receptors (Homo sapiens, UniProt P14416); assay: D2S receptor radioligand binding inhibition ([3H]Spiperone); conditions: for inhibition at 10 µM: screened at 10 μM, mean of two replicates
T4 construct: expressed in transfected cells; host or cells: CHO
T4 sequence (P14416 1-414 isoform P14416-2): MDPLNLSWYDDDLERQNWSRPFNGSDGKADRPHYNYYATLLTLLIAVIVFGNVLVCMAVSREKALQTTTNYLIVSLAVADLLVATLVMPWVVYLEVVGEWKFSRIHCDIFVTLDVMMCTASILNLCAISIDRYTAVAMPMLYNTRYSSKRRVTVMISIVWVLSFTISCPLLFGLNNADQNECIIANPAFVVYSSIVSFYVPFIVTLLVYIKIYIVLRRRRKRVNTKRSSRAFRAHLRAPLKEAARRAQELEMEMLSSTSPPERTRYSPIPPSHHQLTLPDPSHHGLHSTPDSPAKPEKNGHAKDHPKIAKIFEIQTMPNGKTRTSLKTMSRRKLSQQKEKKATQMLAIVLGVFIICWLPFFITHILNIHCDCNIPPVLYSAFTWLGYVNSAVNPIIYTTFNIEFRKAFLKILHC
Procedure: as §1
(§4) Human recombinant dopamine D2S receptors expressed in CHO cells were used in modified Tris-HCl buffer pH 7.4. A 15 μg aliquot was incubated with 0.16 nM [^3H]Spiperone for 120 minutes at 25° C. Non-specific binding was estimated in the presence of 10 μM haloperidol. Receptors were filtered and washed, the filters were then counted to determine [^3H]Spiperone specifically bound. Test compounds were screened at 10 μM.
as §2, §3

[5] = target: T5, Human recombinant dopamine D3 receptors (Homo sapiens, UniProt P35462); assay: D3 receptor radioligand binding inhibition ([3H]Spiperone); conditions: for inhibition at 10 µM: screened at 10 μM, mean of two replicates
T5 construct: expressed in transfected cells; host or cells: CHO
T5 sequence (P35462 whole entry): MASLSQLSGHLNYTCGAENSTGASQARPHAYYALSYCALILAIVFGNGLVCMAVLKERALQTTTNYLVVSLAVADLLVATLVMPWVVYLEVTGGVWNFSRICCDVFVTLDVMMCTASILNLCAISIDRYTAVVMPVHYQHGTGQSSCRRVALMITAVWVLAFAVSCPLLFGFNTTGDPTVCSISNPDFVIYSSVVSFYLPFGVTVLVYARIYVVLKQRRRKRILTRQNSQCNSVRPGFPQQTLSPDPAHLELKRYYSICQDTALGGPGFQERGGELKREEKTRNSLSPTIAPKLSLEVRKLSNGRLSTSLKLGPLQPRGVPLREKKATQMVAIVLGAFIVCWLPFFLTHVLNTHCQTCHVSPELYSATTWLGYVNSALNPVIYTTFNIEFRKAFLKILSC
Procedure: as §1
as §4, with “dopamine D3” for “dopamine D2S”, “A 10” for “A 15”, “with 0.7” for “with 0.16”, “at 37°” for “at 25°”, “of 25” for “of 10”, “μM S(−)-sulpiride.” for “μM haloperidol.”
as §2, §3

[6] = target: T6, Human recombinant serotonin 5-HT2A receptors (Homo sapiens, UniProt P28223); assay: 5-HT2A receptor radioligand binding inhibition ([3H]Ketanserin); conditions: for inhibition at 10 µM: screened at 10 μM, mean of two replicates; for interaction at 5-HT2A receptor, in words: 10 μM, % inhibition greater than 50% interpreted as potentially significant interaction; for selectivity as ligand of the 5-HT2A receptor, in words: conclusion from % inhibition at 10 μM over ten receptors
T6 construct: expressed in transfected cells; host or cells: CHO-K1
T6 sequence (P28223 whole entry): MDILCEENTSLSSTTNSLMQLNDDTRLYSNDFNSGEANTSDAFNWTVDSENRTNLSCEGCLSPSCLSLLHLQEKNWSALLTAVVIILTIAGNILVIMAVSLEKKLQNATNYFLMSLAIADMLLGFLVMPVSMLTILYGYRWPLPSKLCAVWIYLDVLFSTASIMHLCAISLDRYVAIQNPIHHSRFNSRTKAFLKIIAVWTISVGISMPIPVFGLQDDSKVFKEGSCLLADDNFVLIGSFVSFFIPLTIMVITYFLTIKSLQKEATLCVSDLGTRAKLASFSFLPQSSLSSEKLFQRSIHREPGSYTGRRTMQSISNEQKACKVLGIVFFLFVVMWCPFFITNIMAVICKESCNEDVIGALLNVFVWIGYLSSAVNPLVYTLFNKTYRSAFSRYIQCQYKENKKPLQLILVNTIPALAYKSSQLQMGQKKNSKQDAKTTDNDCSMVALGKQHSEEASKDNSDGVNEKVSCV
Procedure: as §1
Human recombinant serotonin 5-HT2A receptors expressed in CHO-K1 cells were used in modified Tris-HCl buffer pH 7.4. A 30 μg aliquot of membrane protein was incubated with 0.5 nM [^3H]Ketanserin for 60 minutes at 25° C. Non-specific binding was estimated in the presence of 1 μM Mianserin. Receptors were filtered and washed, the filters were then counted to determine [^3H]Ketanserin specifically bound. Test compounds were screened at 10 μM.
as §2, §3

[7] = target: T7, Human recombinant dopamine D2L receptor (Homo sapiens, UniProt P14416); assay: D2L receptor radioligand binding inhibition ([3H]Spiperone); conditions: for inhibition at 10 µM: screened at 10 μM, mean of two replicates
T7 construct: expressed in transfected cells; host or cells: CHO
T7 sequence (P14416 whole entry): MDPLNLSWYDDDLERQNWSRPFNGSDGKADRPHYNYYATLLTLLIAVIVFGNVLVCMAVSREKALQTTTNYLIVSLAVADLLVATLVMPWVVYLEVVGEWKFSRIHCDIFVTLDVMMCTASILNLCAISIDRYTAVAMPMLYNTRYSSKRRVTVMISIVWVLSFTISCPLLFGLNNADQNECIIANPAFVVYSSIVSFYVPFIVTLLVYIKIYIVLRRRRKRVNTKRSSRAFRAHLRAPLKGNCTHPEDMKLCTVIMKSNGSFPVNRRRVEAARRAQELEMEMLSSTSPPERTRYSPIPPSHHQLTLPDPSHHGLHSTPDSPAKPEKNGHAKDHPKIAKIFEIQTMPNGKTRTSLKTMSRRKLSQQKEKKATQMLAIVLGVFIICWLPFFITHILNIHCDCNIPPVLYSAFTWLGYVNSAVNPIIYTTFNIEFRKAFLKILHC
Procedure: as §1
as §4, with “D2L receptor” for “D2S receptors”, “20” for “15”, “Receptor proteins” for “Receptors”
as §2, §3

[8] = target: T8, human recombinant serotonin 5-HT2c receptors (Homo sapiens, UniProt P28335); assay: 5-HT2C receptor radioligand binding inhibition ([3H]Mesulergine); conditions: for inhibition at 10 µM: screened at 10 μM, mean of two replicates; for interaction at 5-HT2C receptor, in words: 10 μM, % inhibition greater than 50% interpreted as potentially significant interaction
T8 construct: expressed in transfected cells; host or cells: CHO-K1 (stably transfected)
T8 sequence (P28335 33-458): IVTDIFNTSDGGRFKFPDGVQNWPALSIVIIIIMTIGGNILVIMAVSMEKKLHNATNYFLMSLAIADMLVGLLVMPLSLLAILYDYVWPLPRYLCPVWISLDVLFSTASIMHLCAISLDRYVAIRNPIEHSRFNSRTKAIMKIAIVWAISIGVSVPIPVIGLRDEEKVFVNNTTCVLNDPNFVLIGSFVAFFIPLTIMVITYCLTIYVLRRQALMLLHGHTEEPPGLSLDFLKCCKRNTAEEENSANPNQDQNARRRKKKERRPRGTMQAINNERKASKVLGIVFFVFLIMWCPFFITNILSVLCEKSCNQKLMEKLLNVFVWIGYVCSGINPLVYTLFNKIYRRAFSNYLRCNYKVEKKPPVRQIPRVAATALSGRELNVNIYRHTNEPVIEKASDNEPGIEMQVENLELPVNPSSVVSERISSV
Procedure: as §1
CHO-K1 cells stably transfected with a plasmid encoding the human recombinant serotonin 5-HT2c receptors were used to prepare membranes in modified Tris-HCl buffer pH 7.4. A 3.2 μg aliquot of membrane protein was incubated with 1.0 nM [^3H]Mesulergine for 60 minutes at 25° C. Non-specific binding was estimated in the presence of 1 μM Mianserin. Membranes were filtered and washed, the filters were then counted to determine [^3H]Mesulergine specifically bound. Test compounds were screened at 10 μM.
as §2, §3

[9] = target: T9, Human recombinant dopamine D1 receptors (Homo sapiens, UniProt P21728); assay: D1 receptor radioligand binding inhibition ([3H]SCH-23390); conditions: for inhibition at 10 µM: screened at 10 μM, mean of two replicates
T9 construct: expressed in transfected cells; host or cells: CHO
T9 sequence (P21728 whole entry): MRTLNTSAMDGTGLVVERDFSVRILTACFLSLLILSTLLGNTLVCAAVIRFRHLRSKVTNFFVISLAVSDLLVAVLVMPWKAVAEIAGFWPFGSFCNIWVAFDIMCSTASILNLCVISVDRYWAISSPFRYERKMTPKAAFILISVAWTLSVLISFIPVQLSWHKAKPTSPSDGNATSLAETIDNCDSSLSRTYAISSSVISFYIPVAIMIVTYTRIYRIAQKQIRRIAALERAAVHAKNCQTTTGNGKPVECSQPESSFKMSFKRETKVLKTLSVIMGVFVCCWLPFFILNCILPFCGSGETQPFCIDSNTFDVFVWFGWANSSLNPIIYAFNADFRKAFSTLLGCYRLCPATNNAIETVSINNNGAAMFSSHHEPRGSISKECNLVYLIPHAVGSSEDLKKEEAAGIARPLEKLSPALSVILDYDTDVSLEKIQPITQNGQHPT
Procedure: as §1
as §4, with “D1” for “D2S”, “20” for “15”, “1.4” for “0.16”, “[^3H]SCH-23390” for “[^3H]Spiperone”, “37°” for “25°”, “(+)-butaclamol.” for “haloperidol.”
as §2, §3

[10] = system: human dopamine D4.7 receptor; assay: D4.7 receptor radioligand binding inhibition ([3H]Spiperone); conditions: for interaction at D4.7 receptor, in words: 10 μM, % inhibition greater than 50% interpreted as potentially significant interaction; for % inhibition, D4.7: screened at 10 μM, mean of two replicates
Procedure: as §1
CHO-K1 cells stably transfected with a plasmid encoding the human dopamine D4.7 receptor were used to prepare membranes in modified Tris-HCl buffer pH 7.4. A 60 μg aliquot of membrane was incubated with 1.5 nM [^3H]Spiperone for 120 minutes at 25° C. Non-specific binding was estimated in the presence of 10 μM haloperidol. Membranes were filtered and washed, the filters were then counted to determine [^3H]Spiperone specifically bound. Test compounds were screened at 10 μM.
as §2, §3

[11] = 10 μM, % inhibition greater than 50% interpreted as potentially significant interaction

T1 sequence (P41595 whole entry): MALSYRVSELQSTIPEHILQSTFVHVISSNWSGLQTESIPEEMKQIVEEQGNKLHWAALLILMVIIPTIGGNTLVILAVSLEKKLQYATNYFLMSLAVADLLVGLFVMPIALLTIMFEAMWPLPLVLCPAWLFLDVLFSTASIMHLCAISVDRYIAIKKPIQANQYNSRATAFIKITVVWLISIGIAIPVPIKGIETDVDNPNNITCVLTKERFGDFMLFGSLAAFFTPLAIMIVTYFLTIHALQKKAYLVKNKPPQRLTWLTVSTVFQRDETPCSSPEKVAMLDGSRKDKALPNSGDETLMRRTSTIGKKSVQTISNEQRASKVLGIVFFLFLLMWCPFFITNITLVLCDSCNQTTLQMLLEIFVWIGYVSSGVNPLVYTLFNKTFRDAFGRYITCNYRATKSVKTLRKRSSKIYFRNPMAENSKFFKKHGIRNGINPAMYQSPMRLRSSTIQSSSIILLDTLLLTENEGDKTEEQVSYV

Row | Compound | inhibition at 10 µM [1] [%] | inhibition at 10 µM [2] [%] | inhibition at 10 µM [3] [%] | inhibition at 10 µM [4] [%] | inhibition at 10 µM [5] [%] | inhibition at 10 µM [6] [%] | inhibition at 10 µM [7] [%] | inhibition at 10 µM [8] [%] | inhibition at 10 µM [9] [%] | interaction at A2A receptor, in words [2] | interaction at 5-HT1A receptor, in words [3] | interaction at 5-HT2A receptor, in words [6] | selectivity as ligand of the 5-HT2A receptor, in words [6] | interaction at 5-HT2C receptor, in words [8] | interaction at D4.7 receptor, in words [10] | % inhibition, D4.7 [10] [%] | further results
1 | CN1CC(C(=O)N2CC3(COC3)C2)C=C2c3cccc4[nH]cc(c34)CC21 (centres unmarked) [Compound 1, 2-oxa-6-azaspiro[3.3]heptyl-lysergic acid amide] | 96.8 | -12.3 | 96.3 | 83.1 | 94.5 | 95.3 | 78.8 | 85.8 | 85.6 |  |  |  |  |  |  |  | 
2 | CCN(CC)C(=O)C1C=C2c3cccc4[nH]cc(c34)CC2N(CCF)C1 (centres unmarked) [Compound 2, 6-(2-mono-fluoro-ethyl)-6-nor-lysergic acid diethylamide] | 90.5 | -2.5 | 100 | 0.6 | 14.2 | 95.7 | 7.9 | 4.8 | 4.3 | no significant interaction | very high % inhibition | very high % inhibition | advantageously selective ligands of the 5-HT2A receptor | no significant interaction | no significant interaction | 2.8 | interaction at D2S receptor, in words [4, 11]: no significant interaction; interaction at D3 receptor, in words [5, 11]: no significant interaction; interaction at D2L receptor, in words [7, 11]: no significant interaction; interaction at D1 receptor, in words [9, 11]: no significant interaction
3 | CN1CC(C(=O)NCC(F)(F)F)C=C2c3cccc4[nH]cc(c34)CC21 (centres unmarked) [Compound 3, lysergic acid mono-(trifluoroethyl)amide] | 94.9 | -2 | 101 | 64.2 | 94.7 | 93.1 | 63.1 | 89.4 | 53.8 | no significant interaction | significant interaction | significant interaction | advantageously selective ligands of the 5-HT2A receptor | significant interaction | no significant interaction | 20.1 | interaction at 5-HT2B receptor, in words [1, 11]: significant interaction; D3 % inhibition compared with other dopamine receptors, in words ([5]; 10 μM, may indicate greater selectivity for D3): higher % inhibition than at other dopamine receptors
4 | CCN(CCF)C(=O)C1C=C2c3cccc4[nH]cc(c34)CC2N(C)C1 (centres unmarked) [Compound 4, lysergic acid monofluoro diethylamide] | 97.9 | 12.3 | 100 | 92.1 | 97.7 | 97.1 | 92.7 | 100 | 97.1 | no significant interaction |  |  | advantageously selective ligands of the 5-HT2A receptor |  |  | 71.6 | 
